PubChem BioAssay AID248 (DTP/NCI, 2004)
Several values for one entry are separate records, joined by “and”; a condition that tells them apart may be missing. Equal values may be shown once. Inconclusive results and toxic doses are left out. Cut-off read from the data, not from the text of the source: active = T/C of 150% or more; inactive = T/C below 125%.

System: L1210 leukemia ip in BDF1 mice, survival T/C
Assay: NCI In Vivo Anticancer Drug Screen. Data for tumor model L1210 Leukemia (intraperitoneal) in B6D2F1 (BDF1) mice
Details: endpoint: mean survival time, higher = longer survival
Procedure, shortened: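 Transplanted-tumor mice were given test agent; controls received vehicle only. Survival readings from the two groups were divided (treated over control).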

[1] = dose: 100.0 mg/kg/injection, schedule: Q04DX002 (ip), vehicle: Klucel (hydroxypropylcellulose) (HPC)
[2] = dose: 200.0 mg/kg/injection, schedule: Q04DX002 (ip), vehicle: Klucel (hydroxypropylcellulose) (HPC)
[3] = dose: 400.0 mg/kg/injection, schedule: Q04DX002 (ip), vehicle: Klucel (hydroxypropylcellulose) (HPC)
[4] = dose: 100.0 mg/kg/injection, schedule: Q01DX009 (ip), vehicle: saline
[5] = dose: 100.0 mg/kg/injection, schedule: Q04DX003 (ip), vehicle: saline
[6] = dose: 200.0 mg/kg/injection, schedule: Q01DX009 (ip), vehicle: saline
[7] = dose: 200.0 mg/kg/injection, schedule: Q04DX003 (ip), vehicle: saline
[8] = dose: 400.0 mg/kg/injection, schedule: Q01DX009 (ip), vehicle: saline
[9] = dose: 400.0 mg/kg/injection, schedule: Q04DX003 (ip), vehicle: saline
[10] = dose: 50.0 mg/kg/injection, schedule: Q01DX009 (ip), vehicle: saline with Tween-80
[11] = dose: 100.0 mg/kg/injection, schedule: Q01DX001 (ip), vehicle: other
[12] = dose: 100.0 mg/kg/injection, schedule: Q01DX009 (ip), vehicle: saline with Tween-80
[13] = dose: 200.0 mg/kg/injection, schedule: Q01DX001 (ip), vehicle: other
[14] = dose: 200.0 mg/kg/injection, schedule: Q01DX009 (ip), vehicle: saline with Tween-80
[15] = dose: 100.0 mg/kg/injection, schedule: Q04DX002 (ip), vehicle: saline with Tween-80
[16] = dose: 200.0 mg/kg/injection, schedule: Q04DX002 (ip), vehicle: saline with Tween-80
[17] = dose: 100.0 mg/kg/injection, schedule: Q01DX009 (ip), vehicle: Klucel (hydroxypropylcellulose) (HPC)
[18] = dose: 100.0 mg/kg/injection, schedule: Q04DX003 (ip), vehicle: Klucel (hydroxypropylcellulose) (HPC)
[19] = dose: 200.0 mg/kg/injection, schedule: Q01DX009 (ip), vehicle: Klucel (hydroxypropylcellulose) (HPC)
[20] = dose: 200.0 mg/kg/injection, schedule: Q04DX003 (ip), vehicle: Klucel (hydroxypropylcellulose) (HPC)
[21] = dose: 400.0 mg/kg/injection, schedule: Q01DX009 (ip), vehicle: Klucel (hydroxypropylcellulose) (HPC)
[22] = dose: 400.0 mg/kg/injection, schedule: Q04DX003 (ip), vehicle: Klucel (hydroxypropylcellulose) (HPC)
[23] = dose: 100.0 mg/kg/injection, schedule: Q04DX003 (ip), vehicle: saline with Tween-80
[24] = dose: 200.0 mg/kg/injection, schedule: Q04DX003 (ip), vehicle: saline with Tween-80
[25] = dose: 400.0 mg/kg/injection, schedule: Q04DX003 (ip), vehicle: saline with Tween-80
[26] = dose: 75.0 mg/kg/injection, schedule: Q01DX001 (ip), vehicle: other
[27] = dose: 150.0 mg/kg/injection, schedule: Q01DX001 (ip), vehicle: other

Measured: T/C

O=C(COc1ccc(Cl)c(Cl)c1)N(Cc1ccccc1)Cc1ccc[n+](Cc2cccc(Cl)c2S(=O)(=O)F)c1
inactive: dose: 25.0 mg/kg/injection, schedule: Q04DX003 (ip), vehicle: saline with Tween-80 106 % of control | dose: 50.0 mg/kg/injection, schedule: Q04DX003 (ip), vehicle: saline with Tween-80 96 % of control

Cc1ccc(CNC(=O)Nc2cccc(Cl)c2)cc1
inactive: [1] 115 % of control | [2] 102 % of control | [3] 108 % of control

CCOC(=O)C1(C(=O)OCC)CC(C)C1
inactive: [4] 101 % of control | [5] 101 % of control | [6] 108 % of control | [7] 93 % of control | [8] 96 % of control | [9] 104 % of control

C[n+]1ccc(N2CCCCC2)c2ccc(Cl)cc21
inactive: dose: 2.0 mg/kg/injection, schedule: Q01DX001 (ip), vehicle: saline 111 % of control

NNC(=O)c1ccccc1O
inactive: dose: 50.0 mg/kg/injection, schedule: Q01DX001 (ip), vehicle: other 105 % of control | [10] 90 % of control | [11] 100 % of control | [12] 97 % of control | [13] 97 % of control | [14] 102 % of control

CCCCCCCC(=O)N1CCCCC1CC (stereo not drawn)
inactive: [15] 96 % of control | [16] 86 % of control

CC(=O)OCc1cccc(C)n1
inactive: [4] 97 % of control | [5] 94 % of control and 102 % of control | [6] 96 % of control | [7] 100 % of control | [8] 100 % of control | [9] 93 % of control and 97 % of control

Cc1cccc(NC(=O)Nc2ccc(F)cc2)n1
inactive: dose: 100.0 mg/kg/injection, schedule: Q01DX001 (ip), vehicle: Klucel (hydroxypropylcellulose) (HPC) 94 % of control | [17] 98 % of control | [1] 98 % of control and 103 % of control | [18] 97 % of control | dose: 200.0 mg/kg/injection, schedule: Q01DX001 (ip), vehicle: Klucel (hydroxypropylcellulose) (HPC) 96 % of control | [19] 95 % of control | [2] 100 % of control and 102 % of control | [20] 100 % of control | dose: 400.0 mg/kg/injection, schedule: Q01DX001 (ip), vehicle: Klucel (hydroxypropylcellulose) (HPC) 86 % of control | [21] 95 % of control | [3] 105 % of control and 107 % of control | [22] 107 % of control

COC(=O)C1=C(C)NC(=S)NC1c1ccco1 (stereo not drawn)
inactive: [23] 95 % of control | [24] 97 % of control | [25] 97 % of control

Cc1ccc(SCCn2cnc3c(ncn3Cc3ccccc3)c2=S)cc1
inactive: [23] 96 % of control | [24] 109 % of control | [25] 101 % of control

C=CCC(C#N)(C(=O)OCC)/C(C)=C/C (stereo not drawn)
inactive: [26] 100 % of control | [27] 103 % of control | dose: 300.0 mg/kg/injection, schedule: Q01DX001 (ip), vehicle: other 97 % of control

COC(=O)c1cc(Cl)cc(NC(C)=O)c1Cl
inactive: [1] 97 % of control | [2] 97 % of control | [3] 97 % of control

CCCCCCCCCCCCCCCCNS(=O)(=O)c1ccc(S(=O)(=O)F)cc1
inactive: [23] 94 % of control | [24] 94 % of control | [25] 89 % of control

COc1ccc(/C=N/n2c3ccccc3c3ccccc32)cc1OCCCN(C)C
inactive: dose: 3.12 mg/kg/injection, schedule: Q01DX009 (ip), vehicle: saline 98 % of control | dose: 6.25 mg/kg/injection, schedule: Q01DX009 (ip), vehicle: saline 102 % of control | dose: 25.0 mg/kg/injection, schedule: Q04DX003 (ip), vehicle: alcohol 93 % of control | dose: 50.0 mg/kg/injection, schedule: Q04DX003 (ip), vehicle: alcohol 93 % of control

CCCCCCCCCCCCCCCCCCNC(=O)N(CC)c1ccccc1C
inactive: [17] 101 % of control | [18] 93 % of control | [19] 98 % of control | [20] 90 % of control | [21] 101 % of control | [22] 92 % of control

C[S+]1CCC(N)C(=O)C1 (stereo not drawn)
inactive: dose: 12.5 mg/kg/injection, schedule: Q04DX002 (ip), vehicle: saline 103 % of control | dose: 25.0 mg/kg/injection, schedule: Q04DX002 (ip), vehicle: saline 120 % of control | dose: 50.0 mg/kg/injection, schedule: Q04DX002 (ip), vehicle: saline 113 % of control and 91 % of control | dose: 100.0 mg/kg/injection, schedule: Q04DX002 (ip), vehicle: saline 103 % of control

COc1cc2c(cc1O)CCCCC2=O
inactive: dose: 50.0 mg/kg/injection, schedule: Q01DX009 (ip), vehicle: saline 92 % of control | [4] 104 % of control | [18] 97 % of control | [6] 119 % of control | [20] 102 % of control | [22] 94 % of control

CC(C)(CO)CCl
inactive: [10] 91 % of control | [12] 95 % of control | [14] 88 % of control

Cn1cnc(/C(N)=N\O)c1N
inactive: dose: 25.0 mg/kg/injection, schedule: Q01DX005 (ip), vehicle: saline 102 % of control | dose: 50.0 mg/kg/injection, schedule: Q01DX005 (ip), vehicle: saline 113 % of control | dose: 100.0 mg/kg/injection, schedule: Q01DX005 (ip), vehicle: saline 107 % of control

COc1ccc(CCN(C)C2c3ccccc3C=Cc3ccccc32)cc1OC
inactive: dose: 100.0 mg/kg/injection, schedule: Q01DX001 (ip), vehicle: saline with Tween-80 103 % of control | dose: 200.0 mg/kg/injection, schedule: Q01DX001 (ip), vehicle: saline with Tween-80 107 % of control | dose: 400.0 mg/kg/injection, schedule: Q01DX001 (ip), vehicle: saline with Tween-80 98 % of control

CCCCCCCCN1N=CC(CC)C1CCC (stereo not drawn)
inactive: dose: 50.0 mg/kg/injection, schedule: Q01DX001 (ip), vehicle: carboxymethylcellulose (CMC) 105 % of control | dose: 100.0 mg/kg/injection, schedule: Q01DX001 (ip), vehicle: carboxymethylcellulose (CMC) 88 % of control | dose: 200.0 mg/kg/injection, schedule: Q01DX001 (ip), vehicle: carboxymethylcellulose (CMC) 92 % of control

OCC(O)C(O)C(O)C(Sc1ccccc1)Sc1ccccc1 (stereo not drawn)
inactive: dose: 75.0 mg/kg/injection, schedule: Q01DX001 (ip), vehicle: saline 97 % of control | [11] 95 % of control | dose: 150.0 mg/kg/injection, schedule: Q01DX001 (ip), vehicle: saline 102 % of control | [13] 101 % of control | dose: 300.0 mg/kg/injection, schedule: Q01DX001 (ip), vehicle: saline 102 % of control | dose: 400.0 mg/kg/injection, schedule: Q01DX001 (ip), vehicle: other 97 % of control

O=C(O)c1ccc(-c2ccccc2)cc1
inactive: dose: 50.0 mg/kg/injection, schedule: Q01DX Z (ip), vehicle: carboxymethylcellulose (CMC) 92 % of control | [17] 95 % of control | dose: 100.0 mg/kg/injection, schedule: Q01DX Z (ip), vehicle: carboxymethylcellulose (CMC) 93 % of control | [18] 104 % of control | [19] 98 % of control | dose: 200.0 mg/kg/injection, schedule: Q01DX Z (ip), vehicle: carboxymethylcellulose (CMC) 97 % of control | [20] 93 % of control | [22] 104 % of control

OCCOCC12c3ccccc3C3C(c4ccccc41)C32 (stereo not drawn)
inactive: dose: 50.0 mg/kg/injection, schedule: Q04DX002 (ip), vehicle: saline with Tween-80 90 % of control | [16] 96 % of control

Nc1ccc(Nc2ncnc3nc[nH]c23)cc1
inactive: [23] 102 % of control | [24] 98 % of control | [25] 107 % of control

CC1CC(C)CC(C(O)C2CCCCC2)C1 (stereo not drawn)
inactive: [26] 101 % of control | [27] 106 % of control

CC(Br)c1ccc(S(=O)(=O)F)cc1 (stereo not drawn)
inactive: [15] 104 % of control | [16] 101 % of control
